Source: patent publication US20180141913A1 (EISAI R & D MANAGEMENT CO., LTD., priority 2016, published 2018)
Like-named read-outs stand apart in the source and are kept apart here.

Experiments:
[1] = system: MCF7-Y537S cells (MCF7 ER-alpha Y537S mutant); assay: In vitro proliferation (viability) assay, MCF7-Y537S cells; type: cell-based; conditions: Homo sapiens
Protocol: (§1) MCF7 BUS cells (Coser, et al., (2003) PNAS 100(24): 13994-13999) were maintained in Dulbecco's Modified Eagle Medium supplemented with 10% FBS, 4 mM L-glutamine and 1× non-essential amino acids. Lenti-X 293T cells (Clontech, Cat #632180) were routinely cultured in Dulbecco's Modified Eagle Medium supplemented with 10% FBS.
(§2) The QuikChange II XL Site-Directed Mutagenesis Kit (Agilent Technologies, Cat #200523) was used to generate Y537S, Y537C, Y537N and D538G mutations within the ERα exon 8. Wild-type ESR1 cDNA (GeneCopoeia Inc., Cat# GC-A0322, accession no. NM 000125) was used as a template with the following mutagenesis primers (where the underlined nucleotides represent site mutations); Y537S: F-AAGAACGTGGTGCCCCTCTCTGACCTGCTGCTGGAGATG (SEQ ID NO: 1), R-CATCTCCAGCAGCAGGTCAGAGAGGGGCACCACGTTCTT (SEQ ID NO: 2); Y537N: F-AAGAACGTGGTGCCCCTCAATGACCTGCTGCTGGAGATG (SEQ ID NO: 3), R-CATCTCCAGCAGCAGGTCATTGAGGGGCACCACGTTCTT (SEQ ID NO: 4); Y537C: F-AAGAACGTGGTGCCCCTCTGTGACCTGCTGCTGGAGATG (SEQ ID NO: 5), R-CATCTCCAGCAGCAGGTCACAGAGGGGCACCACGTTCTT (SEQ ID NO: 6); D538G: F-AACGTGGTGCCCCTCTATGGCCTGCTGCTGGAGATGCTG (SEQ ID NO: 7), R-CAGCATCTCCAGCAGCAGGCCATAGAGGGGCACCACGTT (SEQ ID NO: 8). WT and mutant ESR1 cDNAs were cloned into the designation lentiviral vector pLenti6.3/V5-Dest (Invitrogen, Cat #V533-06). To make lentivirus, DNAs (WT and mutant ESR1) were co-transfected with packaging plasmids into Lenti-X 293T cells using TransIT (Mirus, Cat #MIR 2700). 48 h post-transfection, virus containing media was filtered and added to MCF7 cells in the presence of 8 µg/ml polybrene overnight. Two days following infection, cells were placed under selection with 10 µg/ml blasticidin for 2 weeks for stable expression.
(§3) MCF7-WT and -Y537S cells were seeded at 1500 cells/well in black-walled 96-well plates (assay plates, Costar, Cat #3904). In parallel, cells were also seeded in a separate 96-well plate (8 wells/cell line, control plate) for which a CTG (CellTiter-Glo® Luminescent Viability Assay, Promega, Cat #G7572) was measured the following day (day 0 reading). The day 0 reading was used for the GI50 calculation at the termination of the experiment. The day following seeding, compounds were added to assay plates. Briefly, a 1:4 serial dilution was prepared in DMSO at 200× final concentration for a total of 10 concentrations (9 dilutions containing compound and one is DMSO only). Serially diluted compounds were pipetted into medium to prepare a compound-medium mix at 10× final concentration. 10 μl of compound-medium mix was added to MCF7-WT and -Y537S cells at 3 wells/concentration (triplicate for each concentration). On day 3, media/compound was removed and replaced with fresh media/compound as described above. On day 6, CTG was measured and compared to day 0 readings from control plate to assess GI50.

[2] = system: MCF7-WT cells (MCF7 ER-alpha wildtype); assay: In vitro proliferation (viability) assay, MCF7-WT cells; type: cell-based; conditions: Homo sapiens
Protocol: as §1, §2, §3

[3] = MCF7, CellTiter-Glo, day 6 vs day 0, average ± standard deviation, free base and/or salt forms, read-out: MCF7 Y537S GI50
[4] = MCF7, CellTiter-Glo, day 6 vs day 0, average ± standard deviation, free base and/or salt forms, read-out: MCF7 WT GI50
[5] = MCF7, read-out: MCF7 Y537S GI50 (nM)
[6] = MCF7, read-out: MCF7 WT GI50 (nM)

| GI50 [1, 3] [nM] | GI50 [2, 4] [nM] | Structure (SMILES) | GI50 [1, 5] [nM] | GI50 [2, 6] [nM] |
| --- | --- | --- | --- | --- |
| 3.79 ± 1.92 | 0.36 ± 0.16 | CN(C)C(=O)CCCNCCOc1ccc(/C(=C(/CC(F)(F)F)c2ccccc2)c2ccc3[nH]nc(F)c3c2)cc1 [Compound 1, (E)-N,N-dimethyl-4-((2-(4-(4,4,4-trifluoro-1-(3-fluoro-1H-indazol-5-yl)-2-phenylbut-1-en-1-yl)phenoxy)ethyl)amino)butanamide] | – | – |
| 46.4 ± 23.2 | 4.09 ± 2.74 | CC/C(=C(/c1ccc(OCCNCCCC(=O)N(C)C)cc1)c1ccc2[nH]ncc2c1)c1ccccc1 [Compound 4, (E)-4-(2-(4-(1-(1H-indazol-5-yl)-2-phenylbut-1-enyl)phenoxy)ethylamino)-N,N-dimethylbutanamide] | – | – |
| 180 ± 227 | 88.5 ± 42.7 | CNC(=O)/C=C/CNCCOc1ccc(/C(CC(F)(F)F)=C(\c2ccccc2)c2ccc3[nH]nc(F)c3c2)cn1 [Compound 5, (E)-N-methyl-4-((2-((5-((E)-4,4,4-trifluoro-1-(3-fluoro-1H-indazol-5-yl)-1-phenylbut-1-en-2-yl)pyridin-2-yl)oxy)ethyl)amino)but-2-enamide] | – | – |
| 5.5 ± 0.47 | 0.38 | CNC(=O)/C=C/CCNCCOc1ccc(/C(=C(/CC(F)(F)F)c2ccccc2)c2ccc3[nH]nc(F)c3c2)cn1 [Compound 6, (E)-N-methyl-5-((2-((5-((Z)-4,4,4-trifluoro-1-(3-fluoro-1H-indazol-5-yl)-2-phenylbut-1-en-1-yl)pyridin-2-yl)oxy)ethyl)amino)pent-2-enamide] | – | – |
| 14.7 ± 0.55 | 0.7 ± 0.27 | CNC(=O)CCCCNCCOc1ccc(/C(=C(/CC(F)(F)F)c2ccccc2)c2ccc3[nH]nc(F)c3c2)cn1 [Compound 8, (Z)-N-methyl-5-((2-((5-(4,4,4-trifluoro-1-(3-fluoro-1H-indazol-5-yl)-2-phenylbut-1-en-1-yl)pyridin-2-yl)oxy)ethyl)amino)pentanamide] | – | – |
| 32.7 ± 22.2 | 2.08 ± 1.55 | CNC(=O)/C=C/CNCCOc1ccc(/C(=C(\c2ccccc2)C2CCC2)c2ccc3[nH]ncc3c2)cc1 [Compound 11, (E)-4-((2-(4-((E)-2-cyclobutyl-1-(1H-indazol-5-yl)-2-phenylvinyl)phenoxy)ethyl)amino)-N-methylbut-2-enamide] | – | – |
| 24 | 1.45 | O=C1CCCN1CCOc1ccc(/C(=C(/CC(F)(F)F)c2ccccc2)c2ccc3[nH]nc(F)c3c2)cn1 [Compound 12, (Z)-1-(2-((5-(4,4,4-trifluoro-1-(3-fluoro-1H-indazol-5-yl)-2-phenylbut-1-en-1-yl)pyridin-2-yl)oxy)ethyl)pyrrolidin-2-one] | – | – |
| 7.65 ± 3.38 | 1.73 ± 0.14 | O=C(/C=C/CNCCOc1ccc(/C(=C(/CC(F)(F)F)c2ccccc2)c2ccc3[nH]ncc3c2)cc1)N1CCCC1 [Compound 14, (E)-1-(pyrrolidin-1-yl)-4-((2-(4-((E)-4,4,4-trifluoro-1-(1H-indazol-5-yl)-2-phenylbut-1-en-1-yl)phenoxy)ethyl)amino)but-2-en-1-one] | – | – |
| 4.91 ± 0.65 | 0.72 ± 0.24 | O=C(/C=C/CNCCOc1ccc(/C(=C(/CC(F)(F)F)c2ccccc2)c2ccc3[nH]nc(F)c3c2)cn1)N1CCOCC1 [Compound 18, (E)-1-morpholino-4-(2-(5-((Z)-4,4,4-trifluoro-1-(3-fluoro-1H-indazol-5-yl)-2-phenylbut-1-enyl)pyridin-2-yloxy)ethylamino)but-2-en-1-one] | – | – |
| 3.15 ± 0.01 | 0.66 ± 0.05 | O=C(/C=C/CNCCOc1ccc(/C(=C(/CC(F)(F)F)c2ccccc2)c2ccc3[nH]ncc3c2)cn1)N1CCOCC1 [Compound 19, (E)-1-morpholino-4-((2-((5-((Z)-4,4,4-trifluoro-1-(1H-indazol-5-yl)-2-phenylbut-1-en-yl)pyridin-2-yl)oxy)ethyl)amino)but-2-en-1-one] | – | – |
| 6.08 ± 2.69 | 0.66 ± 0.13 | COCCNC(=O)/C=C/CNCCOc1ccc(/C(=C(/CC(F)(F)F)c2ccccc2)c2ccc3[nH]nc(F)c3c2)cn1 [Compound 20, (E)-N-(2-methoxyethyl)-4-((2-((5-((Z)-4,4,4-trifluoro-1-(3-fluoro-1H-indazol-5-yl)-2-phenylbut-1-en-1-yl)pyridin-2-yl)oxy)ethyl)amino)but-2-enamide] | – | – |
| – | – | Cl.[2H]C([2H])([2H])N(C(=O)/C=C/CNCCOc1ccc(/C(=C(/CC(F)(F)F)c2ccccc2)c2ccc3[nH]nc(F)c3c2)cn1)C([2H])([2H])[2H] [Compound 24, (E)-N,N-di(^2H3)methyl-4-((2-((5-((Z)-4,4,4-trifluoro-1-(3-fluoro-1H-indazol-5-yl)-2-phenylbut-1-en-1-yl)pyridin-2-yl)oxy)ethyl)amino)but-2-enamide] | 3.34 ± 1.14 | 0.45 ± 0.11 |
| 1.58 ± 0.23 | 0.38 ± 0.16 | Cl.[2H]C([2H])([2H])N(C(=O)/C=C/CNCCOc1ccc(/C(=C(/CC(F)(F)F)c2ccccc2)c2ccc3[nH]ncc3c2)cn1)C([2H])([2H])[2H] [Compound 25, (E)-N,N-di(H3)methyl-4-((2-((5-((Z)-4,4,4-trifluoro-1-(1H-indazol-5-yl)-2-phenylbut-1-en-1-yl)pyridin-2-yl)oxy)ethyl)amino)but-2-enamide] | – | – |
| 9.08 ± 5.26 | 4.12 ± 1.6 | CC/C(=C(/c1ccc(OCCNC/C=C/C(=O)NC)nc1)c1ccc2[nH]ncc2c1)c1ccccc1 [Compound 28, (E)-4-((2-((5-((Z)-1-(1H-indazol-5-yl)-2-phenylbut-1-en-1-yl)pyridin-2-yl)oxy)ethyl)amino)-N-methylbut-2-enamide] | – | – |
| 27.3 ± 19.9 | 3.06 ± 0.25 | O=C(/C=C/CNCCOc1ccc(/C(=C(\c2ccccc2)C2CCC2)c2ccc3[nH]ncc3c2)cc1)N1CCCC1 [Compound 35] | – | – |
| 9.38 ± 7.61 | 0.24 ± 0.04 | O=C(CCCNCCOc1ccc(/C(=C(/CC(F)(F)F)c2ccccc2)c2ccc3[nH]nc(F)c3c2)cc1)N1CCCC1 [Compound 41, (E)-1-(pyrrolidin-1-yl)-4-((2-(4-(4,4,4-trifluoro-1-(3-fluoro-1H-indazol-5-yl)-2-phenylbut-1-en-1-yl)phenoxy)ethyl)amino)butan-1-one] | – | – |
| – | – | O=C(CCCNCCOc1ccc(/C(=C(/CC(F)(F)F)c2ccccc2)c2ccc3[nH]nc(F)c3c2)cn1)N1CCCC1 [Compound 43] | 3.21 | 0.15 |
| 71 ± 8.63 | 23.2 ± 9.42 | CNC(=O)/C=C/CNCCOc1ncc(/C(=C(/CC(F)(F)F)c2ccccc2)c2ccc3[nH]nc(F)c3c2)cn1 [Compound 45, (E)-N-methyl-4-((2-((5-((Z)-4,4,4,4-trifluoro-1-(3-fluoro-1H-indazol-5-yl)-2-phenylbut-1-en-1-yl)pyrimidin-2-yl)oxy)ethyl)amino)but-2-enamide] | – | – |
| 13.8 ± 5.1 | 1.38 ± 0.44 | CNC(=O)/C=C/CNCCOc1ccc(/C(=C(/CC(F)(F)F)c2ccc(F)cc2Cl)c2ccc3[nH]ncc3c2)cc1 [Compound 46, (E)-4-((2-(4-((E)-2-(2-chloro-4-fluorophenyl)-4,4,4-trifluoro-1-(1H-indazol-5-yl)but-1-en-1-yl)phenoxy)ethyl)amino)-N-methylbut-2-enamide] | – | – |
| 7.25 ± 8.77 | 0.64 ± 0.4 | CNC(=O)/C=C/CNCCOc1ccc(/C(=C(/CC(F)(F)F)c2ccc(F)cc2Cl)c2ccc3[nH]nc(F)c3c2)cc1 [Compound 47, (E)-4-((2-(4-((E)-2-(2-chloro-4-fluorophenyl)-4,4,4-trifluoro-1-(3-fluoro-1H-indazol-5-yl)but-1-en-1-yl)phenoxy)ethyl)amino)-N-methylbut-2-enamide] | – | – |
